Reference: US5247084A, “Derivatives of p-guanidinobenzoic acid” (priority 1985, dated 1993)
Structures can show the parent of a compound that is named as a salt. Where two headings read alike, the source gives them in different places.

Target: T1, elastase from human neutrophil (Homo sapiens, UniProt P08246)
T1 construct: using elastase from human neutrophil; from tissue; host or cells: human neutrophil
T1 sequence (P08246 30-247 limits assumed): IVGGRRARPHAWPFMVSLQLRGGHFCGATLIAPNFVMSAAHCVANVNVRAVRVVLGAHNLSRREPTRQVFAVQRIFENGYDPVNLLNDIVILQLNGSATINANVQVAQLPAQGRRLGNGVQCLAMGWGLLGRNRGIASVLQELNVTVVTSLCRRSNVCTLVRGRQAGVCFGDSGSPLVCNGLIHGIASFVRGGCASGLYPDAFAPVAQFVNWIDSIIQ
Assay: Inhibitory effect on elastase (spectrophotometric method, substrate Suc-Ala-Pro-Ala-pNA)
Assay type: biochemical

[1] = Y represents an oxygen atom, pH 8.0, 37° C., 30 minutes, read-out: Inhibitory Effect on Elastase, IC50
[2] = at 50 μg/ml, Y represents a sulfur atom, read-out: Elastase Inhibitory Effect, Inhibition %
[3] = Y represents a sulfur atom, pH 8.0, 37° C., 30 minutes, read-out: Elastase Inhibitory Effect, IC50

Description: The test was carried out by the slight modification of the method of Bieth et al [see Biochem. Med., 75, 350 (1974)] using elastase from human neutrophil.
The reaction mixture consisted of 1 mM Suc-Ala-Pro-Ala-pNA (dissolving in N-methylpyrrolidone to the concentration of 100 mM, and then adding 1/100 amount of the solution to the reaction mixture.), 0.1 M buffer solution of tris-hydrochloric acid (pH 8.0), 0.2 M sodium chloride aqueous solution, the sample solution of various concentrations and enzyme solution in a final volume of 1.0 ml was incubated at 37° C. for 30 minutes.
The reaction was stopped by the addition of 100 μl of 50% acetic acid into the reaction mixture, and then p-nitro anilide released was measured on absorbance of 405 nm.
Inhibition percentage of the test compounds was caliculated by the following equation: [formula]

| Structure (SMILES) | inhibition at 100 µM (Y represents an oxygen atom) [%] | IC50 [1] [µM] | other results |
| --- | --- | --- | --- |
| CCC(=O)Oc1cc(Cl)cc(OC(=O)c2ccc(NC(=N)N)cc2)c1 [Example 62] |  | 0.38 |  |
| N=C(N)Nc1ccc(C(=O)Oc2cccc(OC(=O)c3ccccc3)c2)cc1 [Example 63] | 78.3 | 11 |  |
| CC(C)C(=O)c1ccc(Cl)cc1OC(=O)c1ccc(NC(=N)N)cc1 [Example 53] |  | 6.5 |  |
| N=C(N)Nc1ccc(C(=O)Oc2cccc(C(=O)c3ccccc3)c2)cc1 [Example 54] |  | 92 |  |
| CC(=O)Oc1cccc(OC(=O)c2ccc(NC(=N)N)cc2)c1 [Example 59] | 25.7 |  |  |
| N=C(N)Nc1ccc(C(=O)Sc2ccc(Cl)c(Cl)c2)cc1 [Example 137] |  |  | inhibition at 50 µg/mL [2]: 35.5% |
| COc1cc(Cl)cc(OC(=O)c2ccc(NC(=N)N)cc2)c1 [Example 39] | 91.1 | 2.4 |  |
| N=C(N)Nc1ccc(C(=O)Oc2cccc(Cl)c2)cc1 [Example 35] | 87.6 | 8 |  |
| COC(=O)c1ccc(OC(=O)c2ccc(NC(=N)N)cc2)cc1Cl [Example 16] | 42 |  |  |
| Cc1cccc(OC(=O)c2ccc(NC(=N)N)cc2)c1C [Example 4] | 5.9 |  |  |
| N=C(N)Nc1ccc(C(=O)Oc2cccc(F)c2)cc1 [Example 29] | 81.1 | 21 |  |
| Cc1ccccc1SC(=O)c1ccc(NC(=N)N)cc1 [Example 125] |  |  | IC50 [3]: 20 µM; inhibition at 50 µg/mL [2]: 76.3% |
| CCOC(=O)c1ccc(SC(=O)c2ccc(NC(=N)N)cc2)cc1 [Example 142] |  |  | inhibition at 50 µg/mL [2]: 69.1% |
| Cc1cccc(OC(=O)c2ccc(NC(=N)N)cc2)c1 [Example 3] | 45.6 |  |  |
| CC(C)OC(=O)c1cc(OC(=O)c2ccc(NC(=N)N)cc2)cc(C(=O)OC(C)C)c1 [Example 19] | 5.2 |  |  |
| Cc1cc(C)cc(OC(=O)c2ccc(NC(=N)N)cc2)c1 [Example 5] | 46.2 |  |  |
| N=C(N)Nc1ccc(C(=O)Sc2ccccc2Cl)cc1 [Example 132] |  |  | IC50 [3]: 1.8 µM; inhibition at 50 µg/mL [2]: 93% |
| CCCOc1ccc(C(C)=O)c(OC(=O)c2ccc(NC(=N)N)cc2)c1 [Example 50] |  | 54 |  |
| N=C(N)Nc1ccc(C(=O)Oc2ccc(I)cc2)cc1 [Example 44] | 11.2 |  |  |
| CN(C)C(=O)Oc1cc(Cl)cc(OC(=O)c2ccc(NC(=N)N)cc2)c1 [Example 87] |  |  | IC50: 0.76 µM |
| COC(=O)C=Cc1ccc(OC(=O)c2ccc(NC(=N)N)cc2)cc1 [Example 27] | 31 |  |  |
| COC(=O)c1cccc(OC(=O)c2ccc(NC(=N)N)cc2)c1Cl [Example 14] | 90.7 | 4 |  |
| N=C(N)Nc1ccc(C(=O)Oc2ccc(Cl)cc2)cc1 [Example 36] |  |  | inhibition at 50 µg/mL (at 50 μg/ml (footnote 2), Y represents an oxygen atom, read-out: Inhibitory Effect on Elastase, Inhibition %): 14.9% |

| Structure (SMILES) | inhibition at 100 µM (Y represents an oxygen atom) [%] | IC50 [1] [µM] | other results |
| --- | --- | --- | --- |
| COCc1cc(OC(=O)c2ccc(NC(=N)N)cc2)cc(OC(=O)c2ccc(NC(=N)N)cc2)c1 [Example 13] | 89 | 9.1 |  |
| Cc1cc(OC(=O)c2ccc(NC(=N)N)cc2)cc(OC(=O)c2ccc(NC(=N)N)cc2)c1 [Example 70] |  | 6.4 |  |
| COC(=O)c1ccccc1SC(=O)c1ccc(NC(=N)N)cc1 [Example 141] |  |  | IC50 [3]: 2.6 µM; inhibition at 50 µg/mL [2]: 96.3% |
| CC(=O)Oc1cc(Cl)cc(OC(=O)c2ccc(NC(=N)N)cc2)c1 [Example 61] |  | 0.48 |  |
| CCN(CC)S(=O)(=O)c1ccc(SC(=O)c2ccc(NC(=N)N)cc2)cc1 [Example 146] |  |  | IC50 [3]: 11 µM; inhibition at 50 µg/mL [2]: 73.1% |
| COC(=O)Cc1ccc(OC(=O)c2ccc(NC(=N)N)cc2)cc1Cl [Example 26] | 13.3 |  |  |
| COC(=O)c1ccc(Cl)cc1OC(=O)c1ccc(NC(=N)N)cc1 [Example 17] | 92.2 | 5.8 |  |
| N=C(N)Nc1ccc(C(=O)Oc2ccccc2F)cc1 [Example 28] | 76.3 | 40 |  |
| Cc1ccc(SC(=O)c2ccc(NC(=N)N)cc2)cc1 [Example 127] |  |  | inhibition at 50 µg/mL [2]: 29.3% |
| COc1ccc(Cl)c(OC(=O)c2ccc(NC(=N)N)cc2)c1 [Example 41] |  | 13 |  |
| CCC(=O)c1ccc(Cl)cc1OC(=O)c1ccc(NC(=N)N)cc1 [Example 52] |  | 1.6 |  |
| COc1ccc(C(C)=O)c(OC(=O)c2ccc(NC(=N)N)cc2)c1 [Example 49] |  | 40 |  |
| COC(=O)Cc1cccc(OC(=O)c2ccc(NC(=N)N)cc2)c1Cl [Example 24] |  | 50 |  |
| COc1cc(OC(=O)c2ccc(NC(=N)N)cc2)ccc1Cl [Example 40] | 39 |  |  |
| CCc1cccc(OC(=O)c2ccc(NC(=N)N)cc2)c1 [Example 6] | 39.6 |  |  |
| N=C(N)Nc1ccc(C(=O)Oc2ccccc2Br)cc1 [Example 42] | 82.1 | 16 |  |
| CCC(C)OC(=O)c1cccc(OC(=O)c2ccc(NC(=N)N)cc2)c1Cl (stereo not drawn) [Example 22] |  | 2.6 |  |
| N=C(N)Nc1ccc(C(=O)Oc2cccc(C(F)(F)F)c2)cc1 [Example 46] | 71.4 | 13 |  |
| COC(=O)Cc1cccc(OC(=O)c2ccc(NC(=N)N)cc2)c1 [Example 23] | 15.6 |  |  |
| N=C(N)Nc1ccc(C(=O)Oc2ccc(F)cc2)cc1 [Example 30] | 10.7 |  |  |
| COC(=O)c1cc(Cl)cc(OC(=O)c2ccc(NC(=N)N)cc2)c1 [Example 18] |  | 1.8 |  |
| COc1ccccc1OC(=O)c1ccc(NC(=N)N)cc1 [Example 7] | 23.1 |  |  |
| N=C(N)Nc1ccc(C(=O)Oc2cccc(F)c2F)cc1 [Example 32] |  | 3.7 |  |

Now from value to compound, other results behind:

| inhibition at 100 µM (Y represents an oxygen atom) [%] | IC50 [1] [µM] | Structure (SMILES) | other results |
| --- | --- | --- | --- |
| 30 |  | CN(C)C(=O)c1cccc(OC(=O)c2ccc(NC(=N)N)cc2)c1 [Example 80] |  |
|  | 88 | N=C(N)Nc1ccc(C(=O)Oc2cc(O)cc(C(=O)NCc3ccccc3)c2)cc1 [Example 115] |  |
| 87 | 11 | N=C(N)Nc1ccc(C(=O)Oc2cccc([N+](=O)[O-])c2)cc1 [Example 107] |  |
|  | 6 | N=C(N)Nc1ccc(SCc2cc(Cl)cc(OC(=O)c3ccc(NC(=N)N)cc3)c2)cc1 [Example 120] |  |
|  | 35 | CCN(CC)S(=O)(=O)c1cccc(OC(=O)c2ccc(NC(=N)N)cc2)c1 [Example 92] |  |
|  | 140 | CN(C)S(=O)(=O)c1ccc(OC(=O)c2ccc(NC(=N)N)cc2)cc1Cl [Example 90] |  |
|  | 4.7 | N=C(N)Nc1ccc(C(=O)Oc2cc(Cl)cc(OCc3ccccc3)c2)cc1 [Example 119] |  |
|  | 58 | CCCN(CCC)S(=O)(=O)c1ccc(OC(=O)c2ccc(NC(=N)N)cc2)cc1 [Example 97] |  |
|  | 1.1 | CC(C)S(=O)(=O)Oc1cc(Cl)cc(OC(=O)c2ccc(NC(=N)N)cc2)c1 [Example 76] |  |
|  | 0.95 | CN(C)S(=O)(=O)c1ccc(NC(=O)c2cc(Cl)cc(OC(=O)c3ccc(NC(=N)N)cc3)c2)cc1 [Example 103] |  |
| 36 |  | CCCNC(=O)c1cc(OC(=O)c2ccc(NC(=N)N)cc2)cc(C(=O)NCCC)c1 [Example 84] |  |
|  | 160 | Cc1cc(O)cc(OC(=O)c2ccc(NC(=N)N)cc2)c1 [Example 109] |  |
| 28 |  | CCNC(=O)c1cc(OC(=O)c2ccc(NC(=N)N)cc2)cc(C(=O)NCC)c1 [Example 83] |  |
|  | 7 | COc1cc(COc2ccc(S(=O)(=O)N3CCOCC3)cc2)cc(OC(=O)c2ccc(NC(=N)N)cc2)c1 [Example 152, p-guanidinobenzoic acid 3-methoxy-5-(4-morpholinosulfonyl)phenoxymethylphenylester acetate] |  |
|  | 77 | N=C(N)Nc1ccc(C(=O)Oc2ccc(S(=O)(=O)N3CCCC3)cc2)cc1 [Example 98] |  |
|  | 15 | CCS(=O)(=O)Nc1cc(Cl)cc(OC(=O)c2ccc(NC(=N)N)cc2)c1 [Example 106] |  |
|  | 3 | CC(=O)OCc1cc(Cl)cc(OC(=O)c2ccc(NC(=N)N)cc2)c1 [Example 71] |  |
|  | 1.1 | N=C(N)Nc1ccc(C(=O)Oc2cc(Cl)cc(COc3cccnc3)c2)cc1 [Example 121] |  |
|  | 4.7 | COc1cc(OC(=O)c2ccc(NC(=N)N)cc2)cc(OS(C)(=O)=O)c1 [Example 73] |  |
|  | > 100 | N=C(N)Nc1ccc(OC(=O)c2ccc(NC(=N)N)cc2)cc1 [Example 117] |  |
|  | 20 | N=C(N)Nc1ccc(C(=O)Oc2cccc(C(=O)O)c2Cl)cc1 [Example 147, P-guanidinobenzoic acid 3-carboxy-2-chlorophenylester hydrobromide] |  |
| 44.2 |  | N=C(N)Nc1ccc(C(=O)Oc2cccc(S(=O)(=O)N3CCOCC3)c2)cc1 [Example 100] |  |
|  | 0.93 | N=C(N)Nc1ccc(C(=O)Oc2cc(Cl)cc(C(=O)Nc3cccnc3)c2)cc1 [Example 86] |  |
